Source: patent US6376200B1, “Kainate-binding, human CNS receptors of the EAA4 family” (priority 1992, dated 2002)
Like-named read-outs stand apart in the source and are kept apart here.

Columns and labels:
human EAA4a receptor [1] = target: T1, human EAA4a receptor (Homo sapiens, UniProt Q13002); type: cell-based; design: transported to the cell surface in mature form, lacking the signal peptide and consisting of 877 amino acids; expressed in transfected cells; host or cells: Xenopus oocytes (stage V or VI), nuclear injection of pcDNAI/humEAA4a DNA; settings: for oocyte response to agonist: tested at -60, -80 and -100 mV
T1 sequence (Q13002 32-908): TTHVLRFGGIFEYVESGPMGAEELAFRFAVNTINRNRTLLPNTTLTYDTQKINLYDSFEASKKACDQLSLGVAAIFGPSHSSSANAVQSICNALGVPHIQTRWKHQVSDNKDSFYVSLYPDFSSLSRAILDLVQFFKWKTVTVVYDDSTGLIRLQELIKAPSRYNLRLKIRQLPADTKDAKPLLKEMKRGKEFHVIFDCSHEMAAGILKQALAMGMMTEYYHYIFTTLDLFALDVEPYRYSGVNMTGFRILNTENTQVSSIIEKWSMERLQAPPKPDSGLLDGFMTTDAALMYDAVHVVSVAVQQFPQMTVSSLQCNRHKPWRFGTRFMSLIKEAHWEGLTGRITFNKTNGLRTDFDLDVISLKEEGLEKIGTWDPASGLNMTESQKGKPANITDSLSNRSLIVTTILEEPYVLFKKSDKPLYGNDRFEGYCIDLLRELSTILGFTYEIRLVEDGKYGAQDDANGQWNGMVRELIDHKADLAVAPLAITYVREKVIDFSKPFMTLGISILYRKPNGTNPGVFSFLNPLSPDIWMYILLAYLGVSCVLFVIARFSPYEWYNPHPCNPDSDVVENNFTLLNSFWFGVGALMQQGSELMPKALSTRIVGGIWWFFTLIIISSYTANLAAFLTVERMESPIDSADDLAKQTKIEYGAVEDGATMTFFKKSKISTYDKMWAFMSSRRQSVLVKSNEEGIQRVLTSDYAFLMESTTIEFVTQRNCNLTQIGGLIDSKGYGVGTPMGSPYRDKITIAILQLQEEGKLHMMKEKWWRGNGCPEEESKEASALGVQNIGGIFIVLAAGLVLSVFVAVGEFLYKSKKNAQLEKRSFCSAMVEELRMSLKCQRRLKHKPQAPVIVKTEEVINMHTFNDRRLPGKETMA
Procedure: Xenopus oocytes (stage V or VI) were harvested and the nucleus of the oocytes was injected with 5 ng of pcDNAI/humEAA4a DNA.

human EAA4a receptor [2] = target: T1, human EAA4a receptor; settings: COS cell membranes
Procedure: Transfected cells in the frozen state were resuspended in ice-cold distilled water using a hand homogenizer and centrifuged for 20 miutes at 50,000 g. The supernatant was discarded and the membrane pellet stored frozen at −70° C.
Proteins were determined using the Pierce Reagent with BSA as standard.
Binding assays were then performed, using an amount of COS-derived membrane equivalent to 25-100 ug as judged by protein determination and selected radiolabelled ligand. […] Samples were incubated on ice for 60 minutes, and bound and free ligand were then separated by rapid filtration using a PHD cell harvester and GF/B filters pre-soaked in ice-cold 0.3% polyethyleneimine. Filters were washed twice in 4 ml of the cold incubation buffer, then placed in scintillation vials with 5 ml of Beckman Ready-Protein Plus scintillation cocktail for counting.
Samples were incubated on ice for 60 minutes in plastic minivials, and bound and free ligand were separated by centrifugation for 30 minutes at 50,000 g. Pellets were washed twice in 4 ml of the cold incubation buffer, then 5 ml of Beckman Ready-Protein Plus scintillation cocktail was added, for counting.

Row | SMILES | effect on the dose/response curve for L-glutamate (human EAA4a receptor [1]; DNQX 2×10^-6M, FIG. 10) | effect on the glutamate response (human EAA4a receptor [1]; oocytes, FIG. 8) | binding to EAA4a receptor (human EAA4a receptor [2]) | oocyte response to agonist (human EAA4a receptor [1]; 10^-4M) | oocyte response to agonist (human EAA4a receptor [1]; NMDA 10^-4M with glycine 10^-6M)
1 | O=C1N=c2cc([N+](=O)[O-])c([N+](=O)[O-])cc2=NC1=O [DNQX, 6,7-dinitroquinoxaline-2,3-dione] | parallel shift of the dose/response curve for L-glutamate to the right | blocked the glutamate response |  |  | 
2 | CN[C@H](CC(=O)O)C(=O)O [NMDA, N-methyl-D-aspartate] |  |  | little or no demonstrable binding | did not respond | did not respond
